# Data taken from patent US20220064167A1, “IMIDAZO-PYRAZOLE CARBOXAMIDE DERIVATIVES AS ANTICANCER AGENTS AND THE SYNTHESIS THEREOF” (AVIDIN KFT., priority 2018, published 2022).
# Entries after “also recorded” stand apart in the source; their conditions may differ.
# Key:
# [1] = test system: active caspase-3 in HL-60 cells; experiment: caspase-3 activation by flow cytometric immunofluorescence (FIG. 5); assay type: cell-based, human; conditions: HL-60, FIG. 5
# Method: (§1) Human promyelocytic leukemia HL60 Cells (500,000/well) were plated in 24-well tissue culture plates (Corning Life Sciences) in RPMI 10% FCS (Gibco) and were treated with the compounds described in Example 60 and 83 at 40 nM, 200 nM and 1 μM concentrations in 500 μl media. After 24 h incubation time cells with the corresponding supernatants were harvested and centrifuged down (2000 rpm, 5 min).
# (§2) Pellets were resuspended and fixed in 3.5% PBS buffered formaldehyde (Molar Chemicals) for 10 minutes. Cells were washed with FACS-buffer (2% FCS, (Gibco) in PBS), centrifuged down (2000 rpm, 5 min). Cells were permeabilized in Permeability buffer (1% FCS, 0.1% saponin (Sigma-Aldrich) in PBS pH 7.4) for 5 minutes. Cells were washed with FACS buffer (2% FCS, (Gibco) in PBS), centrifuged (2000 rpm, 5 min). The following primary antibodies were used: Bcl-xl-Alexa 488, (Cell Signaling, cat. numb. 2767S), dilution 1:75, 24 h; pAkt-Alexa Fluor 488, (Ser473), (Cell Signaling, cat. numb, 4071), dilution 1:50, 24 or 72h; After incubation for 1h at 4° C. samples were washed two times with FACS buffer. […] In order to calculate the signal to noise ratio mean fluorescent intensity (MFI) was calculated by the following equation: =POWER(10; (Medianstained−Median unstained, untreated)/Chd), where Chd means 256, the number of channels per decade (Fajka-Boja et al. 2002; Sharrow 2001) in Microsoft Excel. […]
# HL-60 cells = experiment: resazurin viability assay, Example 103 (FIG. 1); assay type: cell-based; conditions: Homo sapiens, 72 h incubation, 20.000 cells/well, read-out: half-inhibitory concentration (IC50) on viability of HL-60 cells
# Method: The human primary fibroblasts (6000 cells/well) and Hl60 cells (20.000 cells/well) were seeded into 96-well plates (Corning Life Sciences) in media. Fibroblasts were cultured overnight before treatment. Effects of compounds described in Example 22, 60 and 83 were examined in concentrations of 1 μM, 250 nM, 62.5 nM, 15.6 nM, 3.9 nM and 0.9 nM in 100 μl after 72 h incubation. Resazurin reagent was prepared and used as described in Example 1.
# Viability was calculated with relation to untreated control cells and blank wells containing media without cells. IC50 values (50% inhibiting concentration) were calculated by GraphPad Prism® 5.
# Bcl-xl in HL-60 cells = experiment: flow cytometry of Bcl-xl bright cells (FIG. 2A); assay type: cell-based, human; conditions: HL-60, 40 nM, 200 nM and 1 μM, 24 h
# Method: as §1, §2
# [2] = test system: pAkt (Ser473) in HL-60 cells; experiment: flow cytometry of pAkt bright cells (FIG. 2B); assay type: cell-based, human; conditions: HL-60, 40 nM, 200 nM and 1 μM
# Method: as §1, §2
# CD11b on HL-60 cells = experiment: flow cytometry of cell surface CD11b (FIG. 3B); assay type: cell-based, human; conditions: HL-60, 24, 48 and 72 h after treatment
# Method: Experiments detecting CD11b expression by Flow cytometric immunofluorescence were done as described in Example 104 without fixation and permeabilization. Native cell surface staining was done by CD11b-FITC (Immunotools cat number 21389113), with 1:20 dilution 24, 48 and 72 h after treatment.
# [3] = test system: CD34 expression in HL-60 cells; experiment: quantitative real time PCR of stem cell marker (FIG. 3A); assay type: cell-based, human; conditions: HL-60, 24 h after treatment, normalized to ACTB
# Method: (§3) HL-60 cells (10×10^6) were plated in 100 mm tissue culture dishes (Corning Life Sciences) in RPMI 10% FCS. Cells were treated in 10 mL total volume with the compound described in Example 83 24 h after treatment, nucleic acid preparation was done by using the Bioneer RNA purification kit (Bioneer, Viral RNA extraction kit, Daejeon, South Korea) according to an already published protocol (Szebeni et al. 2017a). The quality and quantity of the isolated RNA were measured with NanoDrop1000 Version 3.8.1. (Thermo Fisher Scientific). Reverse transcription from 3 μg of total RNA was performed with the High-Capacity cDNA Archive Kit (Applied Biosystems, Foster City, Calif., USA) in a total volume of 30 μL according to the manufacturer's protocol. Quantitative-real time PCR was carried out using gene specific primers for CD33 (primer sequences: forward 5′ […] 3′, reverse 5′ […] 3′) and CD34, (primer sequences: forward 5′ gcgctttgcttgctgagt 3′, reverse 5′ […] 3′) using Sybr Green detection on a LightCycler Nano instrument (Roche, Hungary). Relative gene expression data was normalized to ACTB (beta actin, primer sequences: forward 5′ attggcaatgagcggttc 3′, reverse 5′ cgtggatgccacaggact 3′) expression.
# [4] = test system: CD33 expression in HL-60 cells; experiment: as above; assay type: cell-based, human; conditions: HL-60, 24 h after treatment, normalized to ACTB
# Method: as §3
SMILES,percentage of active caspase-3 positive cells [1],IC50 (HL-60 cells) [nM],percentage of the Bcl-xl bright cells (Bcl-xl in HL-60 cells),percentage of the pAkt bright cells [2],matured myeloid cell marker CD11b on the cell surface (CD11b on HL-60 cells),expression of haematopoietic stem cell marker CD34 [3],expression of haematopoietic stem cell marker CD33 [4]
"CC(C)(C)Nc1c(C(C)(C)C)[nH]c2c(C(=O)Nc3ccc(F)cc3)cnn12 [Example 60, 2-(Tert-butyl)-N-(4-fluorophenyl)-3-((tert-butyl-2-yl)amino)-1H-imidazo[1,2-b]pyrazole-7-carboxamide]",increased,210,increase,increase,,,
"CC(C)(C)Nc1c(C(C)(C)C)[nH]c2c(C(=O)Nc3ccc(N)cc3)cnn12 [Example 83, N-(4-Aminophenyl)-2-(tert-butyl)-3-(tert-butylamino)-1H-imidazo[1,2-b]pyrazole-7-carboxamide]",increased,50,increase,increase,elevation; also recorded: elevated,decreased,decreased
